Counter-ions that a name gives are not always drawn. Like-named read-outs stand apart in the source and are kept apart here. A value given as a limit tells only on which side of the number the result lay.

For series [1] the following is noted: acid counterion; cited from earlier work.
A short description of series [2]: Solubility of salts in water and in 0.2 M phosphate buffer pH 6 at 37° C. after 4 hours (HPLC-DAD). In kind it is physicochemical. As to conditions: 37° C., 4 hours, listed as Voruciclib HCl salt. The protocol:
Two sets of solubility experiments were performed. […] In the second set of solubility experiments about 5 mg of the salt was weighed in a standard 1.8 mL HPLC vial. Subsequently, aliquots of 200 μL of aqueous medium were added up to a maximum of 1 mL, while making observations regarding the dissolution behavior of the salts. The vials were left to equilibrate at 37° C. with continuous stirring (see Table 25 for details). After 4 hours the solids were separated from the liquid by centrifugation and the liquid phase was further filtrated through a […] PTFE filter to remove any particulate matter. The concentration of solute was determined by HPLC-DAD analysis. A calibration curve was made from two independent stock solutions of voruciclib prepared in acetonitrile/water. The pH was recorded at the end of the equilibration time.

A short description of series [3]: Thermodynamic solubility of voruciclib HCl by the shake-flask method (HPLC). As to conditions: RT; for Solubility classification: USP29. In kind it is physicochemical.

`O=C(O)C[C@H](O)C(=O)O` [(−)-L-Malic]: in series [1], the pka1 is on record as 3.5 and the pka2 was 5.1.
In the case of `O=S(=O)(O)c1ccc2ccccc2c1` [Naphthalene-2-sulfonic], the pka1 in series [1] is 0.2.
For `O=S(=O)(O)c1cccc2c(S(=O)(=O)O)cccc12` [Naphthalene-1,5-disulfonic], in series [1], the pka1 is on record as −3.4 and the pka2 is reported as −2.6.
As for `O=C(O)[C@H](O)[C@@H](O)[C@H](O)[C@H](O)CO` [D-Gluconic], the pka1 in series [1] is listed as 3.8.
As for `O=S(=O)(O)CCS(=O)(=O)O` [Ethane-1,2-disulfonic], in series [1], the pka1 was −2.1 and the pka2 is recorded as −1.5.
`O=C(O)CCCC(=O)O` [Glutaric]: in series [1], the pka1 is given as 4.3 and the pka2 is on record as 5.3.
`CN1CC[C@@H](c2c(O)cc(O)c3c(=O)cc(-c4ccc(C(F)(F)F)cc4Cl)oc23)[C@@H]1CO` [voruciclib HCl]: the “Solubility pH 6” value in series [2] (0.2M phosphate buffer (pH 6)) is recorded as 0.01 mg/mL. Also, the Solubility water entry in series [2] (water) is listed as “Gel”. Moreover, the solubility at 24 h in series [3] (1,2-dimethoxyethane, organic solvent or mixture, thermodynamic from solid, 1,2-Dimethoxyethane, 24 h, amorphous API, HPLC, read-out: Solubility) turned out to be 1.6 mg/mL; in series [3] (1,4-dioxane, organic solvent or mixture, thermodynamic from solid, 1,4-Dioxane, 24 h, amorphous API, HPLC, read-out: Solubility), 0.4 mg/mL; in series [3] (1-propanol, organic solvent or mixture, thermodynamic from solid, 1-Propanol, 24 h, amorphous API, HPLC, read-out: Solubility) it was 34 mg/mL; in series [3] (2-butanol, organic solvent or mixture, thermodynamic from solid, 2-Butanol, 24 h, amorphous API, HPLC, read-out: Solubility) it was 10 mg/mL; in series [3] (2-methyltetrahydrofuran, organic solvent or mixture, thermodynamic from solid, 2-Methyltetrahydrofuran, 24 h, amorphous API, HPLC, read-out: Solubility) it was 1.6 mg/mL; in series [3] (2-propanol, organic solvent or mixture, thermodynamic from solid, 2-Propanol, 24 h, amorphous API, HPLC, read-out: Solubility) it was 19 mg/mL. In addition, the solubility at 24 h in series [3] (acetone, organic solvent or mixture, thermodynamic from solid, Acetone, 24 h, amorphous API, HPLC, read-out: Solubility) was 3.5 mg/mL; in series [3] (acetonitrile, organic solvent or mixture, thermodynamic from solid, Acetonitrile, 24 h, amorphous API, HPLC, read-out: Solubility) it was 0.9 mg/mL; in series [3] (anisole, organic solvent or mixture, thermodynamic from solid, Anisole, 24 h, amorphous API, HPLC, read-out: Solubility), less than 0.1 mg/mL; in series [3] (chloroform, organic solvent or mixture, thermodynamic from solid, Chloroform, 24 h, amorphous API, HPLC, read-out: Solubility), 3.1 mg/mL; in series [3] (cumene, organic solvent or mixture, thermodynamic from solid, Cumene, 24 h, amorphous API, HPLC, read-out: Solubility), less than 0.1 mg/mL; in series [3] (cyclohexane, organic solvent or mixture, thermodynamic from solid, Cyclohexane, 24 h, amorphous API, HPLC, read-out: Solubility), less than 0.1 mg/mL. Further, the solubility at 24 h in series [3] (dichloromethane, organic solvent or mixture, thermodynamic from solid, Dichloromethane, 24 h, amorphous API, HPLC, read-out: Solubility) is 0.5 mg/mL; in series [3] (diethyl ether, organic solvent or mixture, thermodynamic from solid, Diethyl ether, 24 h, amorphous API, HPLC, read-out: Solubility), 0.2 mg/mL; in series [3] (diisopropyl ether, organic solvent or mixture, thermodynamic from solid, Diisopropyl ether, 24 h, amorphous API, HPLC, read-out: Solubility), less than 0.1 mg/mL; in series [3] (ethanol, organic solvent or mixture, thermodynamic from solid, Ethanol, 24 h, amorphous API, HPLC, read-out: Solubility) it was 62 mg/mL; in series [3] (ethyl acetate, organic solvent or mixture, thermodynamic from solid, Ethyl acetate, 24 h, amorphous API, HPLC, read-out: Solubility), 0.8 mg/mL; in series [3] (ethyl formate, organic solvent or mixture, thermodynamic from solid, Ethyl formate, 24 h, amorphous API, HPLC, read-out: Solubility) it was 1.6 mg/mL. The solubility at 24 h is less than 0.1 mg/mL in series [3] (hexanes, organic solvent or mixture, thermodynamic from solid, Hexanes, 24 h, amorphous API, HPLC, read-out: Solubility); 0.5 mg/mL in series [3] (isopropyl acetate, organic solvent or mixture, thermodynamic from solid, Isopropyl acetate, 24 h, amorphous API, HPLC, read-out: Solubility); 230 mg/mL in series [3] (methanol, organic solvent or mixture, thermodynamic from solid, Methanol, 24 h, amorphous API, HPLC, read-out: Solubility); 1.1 mg/mL in series [3] (methyl ethyl ketone, organic solvent or mixture, thermodynamic from solid, Methyl ethyl ketone, 24 h, amorphous API, HPLC, read-out: Solubility); 0.7 mg/mL in series [3] (methyl isobutyl ketone, organic solvent or mixture, thermodynamic from solid, Methyl isobutyl ketone, 24 h, amorphous API, HPLC, read-out: Solubility); less than 0.1 mg/mL in series [3] (n-heptane, organic solvent or mixture, thermodynamic from solid, n-Heptane, 24 h, amorphous API, HPLC, read-out: Solubility). In addition, the solubility at 24 h in series [3] (n-hexane, organic solvent or mixture, thermodynamic from solid, n-Hexane, 24 h, amorphous API, HPLC, read-out: Solubility) is less than 0.1 mg/mL; in series [3] (p-xylene, organic solvent or mixture, thermodynamic from solid, p-Xylene, 24 h, amorphous API, HPLC, read-out: Solubility), less than 0.1 mg/mL; in series [3] (solvents other than DMA, DMF, DMSO and alcohols, organic solvent or mixture, thermodynamic from solid, solvents other than DMA, DMF, DMSO and alcohols, read-out: Solubility in all the other solvents) it was less than 10 mg/mL; in series [3] (tert-butyl methyl ether, organic solvent or mixture, thermodynamic from solid, tert-Butyl methyl ether, 24 h, amorphous API, HPLC, read-out: Solubility), 0.1 mg/mL; in series [3] (tetrahydrofuran, organic solvent or mixture, thermodynamic from solid, Tetrahydrofuran, 24 h, amorphous API, HPLC, read-out: Solubility), 9.6 mg/mL; in series [3] (toluene, organic solvent or mixture, thermodynamic from solid, Toluene, 24 h, amorphous API, HPLC, read-out: Solubility), 0.1 mg/mL. In addition, the “solubility” value in series [3] (1-Propanol, 24 h, amorphous API, HPLC) is reported as 34.5 mg/mL; in series [3] (2-Butanol, 24 h, amorphous API, HPLC) it was 10.2 mg/mL; in series [3] (2-Propanol, 24 h, amorphous API, HPLC) it was 18.8 mg/mL; in series [3] (Dimethyl sulfoxide, amorphous API, no suspension obtained, concentration of the solution after first aliquot), more than 400 mg/mL; in series [3] (Ethanol, 24 h, amorphous API, HPLC), 62.0 mg/mL; in series [3] (Methanol, 24 h, amorphous API, HPLC), 229.5 mg/mL. Moreover, the “solubility” value in series [3] (N,N-Dimethylacetamide, amorphous API, no suspension obtained, concentration of the solution after first aliquot) is more than 400 mg/mL; in series [3] (N,N-Dimethylformamide, amorphous API, no suspension obtained, concentration of the solution after first aliquot) it was more than 400 mg/mL; in series [3] (N,N-dimethylacetamide, organic solvent or mixture, thermodynamic from solid, N,N-Dimethylacetamide, amorphous API, no suspension obtained, concentration of the solution after first aliquot, read-out: Solubility) it was more than 400 mg/mL; in series [3] (N,N-dimethylformamide, organic solvent or mixture, thermodynamic from solid, N,N-Dimethylformamide, amorphous API, no suspension obtained, concentration of the solution after first aliquot, read-out: Solubility), more than 400 mg/mL; in series [3] (dimethyl sulfoxide, organic solvent or mixture, thermodynamic from solid, Dimethyl sulfoxide, amorphous API, no suspension obtained, concentration of the solution after first aliquot, read-out: Solubility), more than 400 mg/mL. For the same molecule, the Solubility classification result in series [3] (2-Propanol, 2-Butanol) is listed as “Sparingly soluble”; in series [3] (Acetonitrile, Ethyl acetate, Methyl isobutyl ketone, Dichloromethane, Isopropyl acetate, 1,4-Dioxane, Diethyl ether, tert-Butyl methyl ether, Toluene) it was “Very slightly soluble”; in series [3] (Anisole, p-Xylene, Diisopropyl ether, Cumene, Cyclohexane, n-Hexane, n-Heptane, Hexanes), “Practically insoluble”; in series [3] (Ethanol, 1-Propanol), “Soluble”; in series [3] (N,N-Dimethylacetamide, Dimethyl sulfoxide, N,N-Dimethylformamide, Methanol), “Freely soluble”; in series [3] (Tetrahydrofuran, Acetone, Chloroform, 1,2-Dimethoxyethane, 2-Methyltetrahydrofuran, Ethyl formate, Methyl ethyl ketone) it was “Slightly soluble”.
Consider `O=C(O[C@@H](C(=O)O)[C@@H](OC(=O)c1ccccc1)C(=O)O)c1ccccc1` [Dibenzoyl-L-tartaric], for which the pka1 in series [1] is on record as 1.9.
As to `CCS(=O)(=O)O` [Ethanesulfonic], the pka1 in series [1] is given as 2.1.

Usually solubility stands for the concentration that dissolves in the medium under given conditions.

Values taken from US12421216B2, “Voruciclib polymorphs and methods of making and using thereof” (MEI PHARMA, INC., priority 2019, dated 2025).
